In patent publication US20120035244A1, “PARP1 TARGETED THERAPY” (THE REGENTS OF THE UNIVERSITY OF MICHIGAN, priority 2010, published 2012):
“Also recorded” adds a separate entry of the source.

Assays:
RWPE-ERG cells = experiment: Chicken chorioallantoic membrane (CAM) intravasation assay, RWPE-ERG cells; type: in vivo, chicken embryo; details: lower CAM three days after implantation, 40 mg/kg Olaparib, P<0.1
Protocol: (§1) The CAM assay was performed as described previously (Zijlstra, A., et al., Cancer research 62, 7083-7092 (2002)). Briefly, fertilized eggs were incubated in a rotary humidified incubator at 38° C. with for 10 days. After releasing the CAM by applying mild amount of low pressure to the hole over the air sac and cutting a square 1-cm^2 window encompassing a second hole near the allantoic vein, cultured human cells that had been pre-treated with siRNA as indicated were detached by trypsinization and re-suspended in complete medium prior to implantation of 2×10^6 cells adjacent to the mesenchyme in each egg. The windows were subsequently, sealed and the eggs were returned to a stationary incubator. Cells were then treated as indicated with 40 mg/kg body weight Olaparib which was administered on day 13, 15 and 17. Day 18 embryos were sacrificed. Tumors were then excised and weighed. […] After incubation of either the metastasis or intravasation assays, the extra-embryonic tumor and CAM, as well as the embryonic liver were harvested and analyzed for the presence of tumor cells by quantitative human alu-specific PCR. […] Quantification of human cells in the extracted DNA was done as described^14. Fluorogenic TaqMan qPCR probes were applied as above, and DNA copy numbers were quantified.

MDA-MB-231 (BRCA1/2 WT) = experiment: CAM xenograft tumors, MDA-MB-231; type: in vivo, chicken embryo; details: Olaparib treatment
Protocol: as §1

VCaP xenografts = experiment: VCaP mouse xenograft model; type: in vivo, mice
From the text: (§2) Olaparib was obtained from Axon Medchem (Groningen, The Netherlands).

22RV1 xenografts = experiment: 22RV1 mouse xenograft model; type: in vivo, mice; details: 22RV1 (ETS negative), Olaparib
From the text: as §2

[1] = tested on: MDA-PCa-133 (ERG positive); experiment: Human prostate cancer tissue xenograft (primagraft) MDA-PCa-133; type: in vivo, mice; details: MDA-PCa-133, 40 mg/kg Olaparib; P=0.05 (Day 8), P<0.01 (day 16, 24 and 32)
Protocol: (§3) Human prostate cancer specimens MDA-PCa 2b-T (ETV1 positive), MDA-PCa-133 (ERG positive) and MDA PCa 118b (ETS-negative) were obtained (Li, Z. G., et al. The Journal of clinical investigation 118, 2697-2710 (2008)). Each xenografted tumor tissue was aseptically harvested from the host mice. New recipient mice were anesthetized by injecting […] intraperitoneally for chemical restraint before tumor implantation. About 0.5 cm^3 size of the excised tumor tissue was directly implanted into subcutaneous pockets of 6- to 8-week-old male CB17 SCID mice (Charles River Laboratories) in a laminar flow sterile hood. Sub-cutaneous pocket was carefully closed by applying 1 or 2 wound clips. All mice were monitored for 24 hours after implantation procedure for any apparent physiologic disturbances or missing wound clips. Olaparib (40 mg/Kg body weight) treatment was started after 72 hours. […] Body weight was also monitored weekly during the course of the study.

[2] = tested on: MDA-PCa-2b-T (ETV1 positive); experiment: Human prostate cancer tissue xenograft (primagraft) MDA-PCa-2b-T; type: in vivo, mice; details: 40 mg/kg Olaparib, P<0.01 (day 8, 12 and 16)
Protocol: as §3

[3] = Serum ALT and AST of PC3-ERG mice (liver toxicity); type: in vivo
VCaP cells = experiment: γ-H2A.X immunofluorescence, VCaP cells; type: cell-based, human; details: Olaparib for 48 hours
Protocol: Cells were seeded at 25,000 cells/mL in 4-well chamber slide 24 hours prior to the addition of siRNA or drug as indicated. Merbarone (Sigma) was dissolved in DMSO and stored at 4° C. Cells were then washed once in PBS, fixed for 15 minutes in 100% methanol, washed in PBS, permeabilized for 5 minutes in PBS containing 0.2% Triton-X, washed twice in PBS, blocked for 30 minutes in PBS containing 0.5% donkey serum (Sigma, St. Louis, Mo.), held for 45 minutes in PBS containing 0.5% donkey serum and primary antibody: anti-γ-H2A.X mouse monoclonal (Millipore Cat #05-636), anti-γ-H2A.X rabbit polyclonal (Cell Signaling, Cat #9719, Danvers, Mass.), and anti-53BP1 rabbit polyclonal (Cell Signaling, Cat #4937, Danvers, Mass.) washed 3 times with PBS, held for 30 minutes in PBS containing 0.5% donkey serum and secondary antibody: Alexa Fluor 488-anti-Mouse (Invitrogen) or Alexa Fluor 594-anti-Rabbit (Invitrogen). Cells were then stained with DAPI for 5 minutes and slides were mounted 12 hours prior to analysis using Vectashield (Vector laboratories, Burlingame, Calif.). Images were taken using 100× oil lens on an Olympus Confocal microscope at the University of Michigan microscopy imaging lab.

PC3-ERG cells = experiment: Neutral COMET assay, ERG overexpressing PC3 cells versus controls; type: cell-based, human
[4] = tested on: Ewing's sarcoma cell lines; experiment: Ewing's sarcoma cell lines: soft agar colony formation and neutral COMET assays; type: cell-based; details: with or without 10 μM Olaparib for 48 hours (COMET); soft agar colony formation
Protocol: The effect of PARP1 inhibitors on Ewing's sarcoma cell lines was assayed. CADO-ES1 or RD-ES1 cells were treated with siRNA for 48 hours. Cells were then harvested and plated in a transwell migration assay. Forty eight hours later, cells were stained with crystal violet and the total number or invaded cells was quantified. Soft agar colony formation was performed on cells treated with or without Olaparib. Neutral COMET assays were performed on a panel of Ewing's Sarcoma cell lines. PC3 was used as an ETS negative control and PC3-ERG for comparison to an ETS positive model. Cells were treated with or without 10 μM Olaparib for 48 hours. D) As in C, except cells were pre-treated with siRNA for 48 hours. All experiments were run in triplicate. Error bars are standard error of the mean.

T-ALL cell lines = experiment: T-ALL cell lines: neutral COMET assays and soft agar colony formation; type: cell-based; details: with or without 10 μM Olaparib for 48 hours (COMET); soft agar colony formation
Protocol: The effect of PARP1 inhibitors on T-ALL cell lines was assayed using Western blot analysis of several T-ALL cell lines comparing total ERG expression levels. In addition, neutral COMET assays were performed on a panel of T-ALL cell lines. RWPE was used as an ETS negative control and VCaP cells were used for comparison to an ETS positive model. Cells were treated with or without 10 μM Olaparib for 48 hours as indicated. Soft agar colony formation was performed on cells treated with or without Olaparib as indicated. All experiments were run in triplicate. Error bars are standard error of the mean.

PC3-ERG xenografts = experiment: PC3-ERG mouse xenograft model; details: P=0.007 for PARP inhibition
Protocol: Four weeks old male Balb C nu/nu mice were purchased from Charles River, Inc. (Charles River Laboratory, Wilmington, Mass.). VCaP (2×10^6 cells), PC3-luciferase-control (1×10^5 cells) or PC3-luciferase-ERG (1×10^5 cells) stable cells were resuspended in 100 μl of saline with 50% Matrigel (BD Biosciences, Becton Drive, NJ) and were implanted subcutaneously into the left flank region of the mice. Mice were anesthetized using a cocktail of xylazine (80-120 mg/kg, IP) and ketamine (10 mg/kg, IP) for chemical restraint before tumor implantation. All tumors were staged for three week before starting the drug treatment. After week 3 for VCaP cells or after 48 hours for PC3 cells, mice (10 per treatment group) were treated with NU7026 (25 mg/kg, IP), Olaparib (40 mg/kg, IP) daily five times a week. Olaparib was obtained from Axon Medchem (Groningen, The Netherlands). Growth in tumor volume was recorded weekly by using digital calipers and tumor volumes were calculated using the formula (π/6) (L×W2), where L=length of tumor and W=width. Loss of body weight during the course of the study was also monitored weekly.

Which ERG-mediated intravasation (RWPE-ERG cells) does the source give for `O=C(c1cc(Cc2n[nH]c(=O)c3ccccc23)ccc1F)N1CCN(C(=O)C2CC2)CC1` [Olaparib, 4-[3-(4-Cyclopropanecarbonylpiperazine-1-carbonyl)-4-fluorobenzyl]-2H-phthalazin-1-one] here?
The ERG-mediated intravasation was “sufficient to block ERG-mediated intravasation”.

And the effect on tumors (MDA-MB-231 (BRCA1/2 WT))?
The effect on tumors was “no measurable effect”.

And the “dose dependence of VCaP tumor growth response” value (VCaP xenografts; Olaparib)?
The value was “dose dependent”.

What about the “tumor growth relative to the vehicle control” value (VCaP xenografts; VCaP, Olaparib 40 mg/kg/day IP (P=0.001), NU7026 25 mg/kg/day IP (p=0.004)) of the same molecule?
The value was “significant reduction of tumor growth”.

What about the xenograft growth (22RV1 xenografts) of the same molecule?
Its xenograft growth is “not responsive; also recorded: did not inhibit the growth”.

What about the primagraft growth [1] of the same molecule?
Its primagraft growth is “inhibited the growth”.

What about the primagraft growth [2] of the same molecule?
Its primagraft growth is “inhibited the growth”.

What about the “liver toxicity as assessed by serum levels of ALT and AST” value [3] of the same molecule?
The value was “did not lead to liver toxicity”.

And the γ-H2A.X foci (VCaP cells)?
Its γ-H2A.X foci is “very high level of γ-H2A.X foci”.

And the “potentiated DNA damage (COMET), time course” value (PC3-ERG cells; PC3-ERG relative to PC3-LACZ, 0.5, 1, 24 and 48 hr exposure, as early as 30 min (p=0.002))?
The value was “potentiated DNA damage was observed”.

And the “COMET tail moment increase, ERG positive cells versus controls” value (PC3-ERG cells; PC3 cells with and without Olaparib, P=0.03, two-way ANOVA)?
Its value is “significantly greater increase in the tail moments”.

What about the “sensitivity of Ewing's sarcoma cell lines” value [4] of the same molecule?
Its value is “sensitive to PARP1; also recorded: sensitive to PARP inhibition”.

What about the “sensitivity of T-ALL cell lines” value (T-ALL cell lines) of the same molecule?
The value was “sensitive to PARP1 inhibition; also recorded: sensitive to PARP inhibition”.

And the xenograft growth (PC3-ERG xenografts)?
Its xenograft growth is “significantly sensitize the PC3 cells to PARP inhibition”.
